Each structure is given as a SMILES string.

As usually defined, the viability is a read-out of living cells in per cent, often relative to untreated cells.

In the experiment the test system is T.b. brucei (strain 427) bloodstream form parasites. Kind of experiment: T.b. brucei single concentration screen (10 μM). Particulars: Trypanosoma brucei, read-out: T.b.brucei % viability (10 µM).
In the case of `CS(=O)(=O)c1cccc(-c2cnc3[nH]cc(-c4ccc(CCC(=O)O)cc4)c3c2)c1` [MMV026020, CS(=O)(=O)c1cccc(c1)c2cnc3[nH]cc(c4ccc(CCC(=O)O)cc4)c3c2], the viability at 10 µM was 61%. As for `CCCNC(=O)N1CCC2(CC1)CC(=O)c1cc(C)ccc1O2` [MMV085230, CCCNC(=O)N1CCC2(CC1)CC(=O)c3cc(C)ccc3O2], the figure is 103%; as for `O=C(Nc1nnc(-c2ccc(Cl)s2)o1)c1ccc(Cl)s1` [MMV676501, Clc1ccc(s1)C(=O)Nc2oc(nn2)c3ccc(Cl)s3], 93%. On to `C[C@H](c1ccc2c(c1)CCCC2)N(C)c1ncc2c(N)nc(N)nc2n1` [MMV690103, C[C@@H](N(C)c1ncc2c(N)nc(N)nc2n1)c3ccc4CCCCc4c3], for which the viability at 10 µM worked out at 26%. Consider `CC1CC1C(=O)NC1CCN(CC2(c3ccccc3)CCCCC2)CC1` (stereo not drawn) [MMV020120, CC1CC1C(=O)NC2CCN(CC3(CCCCC3)c4ccccc4)CC2], for which the viability at 10 µM stood at 109%. `CCc1nc2ccc(Cl)cn2c1C(=O)NCc1ccc(N2CCC(c3ccc(OC(F)(F)F)cc3)CC2)cc1` [MMV687696, CCc1nc2ccc(Cl)cn2c1C(=O)NCc3ccc(cc3)N4CCC(CC4)c5ccc(OC(F)(F)F)cc5]: the viability at 10 µM stood at 99%. For `CN1CCCC1CCO[C@](C)(c1ccccc1)c1ccc(Cl)cc1` (stereo partly drawn) [Compound 62, ClC1=CC=C([C@@](C)(C2=CC=CC=C2)OCCC3N(C)CCC3)C=C1], the viability at 10 µM turned out to be 2%. For the compound `O=C([C@@H](c1ccc(Cl)cc1)c1cccnc1)N1CCN(c2ccc(C(F)(F)F)cc2)CC1` [MMV689244, FC(F)(F)c1ccc(cc1)N2CCN(CC2)C(=O)[C@@H](c3ccc(Cl)cc3)c4cccnc4], the viability at 10 µM was 108%. For `O=C(Nc1ccccc1-c1nc2c(C(=O)O)cccc2o1)c1ccccc1` [MMV676162, OC(=O)c1cccc2oc(nc12)c3ccccc3NC(=O)c4ccccc4], the viability at 10 µM came to 101%.

With `COc1cccc(-n2nnnc2S(=O)(=O)Cc2ccccc2)c1` [MMV676388, COc1cccc(c1)n2nnnc2S(=O)(=O)Cc3ccccc3], the viability at 10 µM was 87%. As for `O=C(Nc1cccc(Cl)c1)c1cnc(N2CCN(c3ccncc3)CC2)c(Cl)c1` [MMV024406, Clc1cccc(NC(=O)c2cnc(N3CCN(CC3)c4ccncc4)c(Cl)c2)c1], the viability at 10 µM came out at 63%.

As for `CC(C(=O)N1CCCC1)N1CCN(S(=O)(=O)c2ccc(C(C)(C)C)cc2)CC1` (stereo not drawn) [MMV020291, CC(N1CCN(CC1)S(=O)(=O)c2ccc(cc2)C(C)(C)C)C(=O)N3CCCC3], the viability at 10 µM was determined as 95%. Turning to `CCN(CC)CCCN1CCN(C(=O)c2cccc(-c3noc(C(F)(F)F)n3)c2)CC1` [MMV022236, CCN(CC)CCCN1CCN(CC1)C(=O)c2cccc(c2)c3noc(n3)C(F)(F)F], the viability at 10 µM is 103%. With `O=C(Nc1cccnc1)c1c(O)c2cccc3c2n(c1=O)CC3` [MMV676395, OC1=C(C(=O)Nc2cccnc2)C(=O)N3CCc4cccc1c34], the viability at 10 µM came to 106%. Regarding `CC(C)(C)OC(=O)N1CCN(c2cc(-c3ccc(Oc4ccccc4)cc3)n[nH]2)CC1` [MMV676057, CC(C)(C)OC(=O)N1CCN(CC1)c2cc(n[nH]2)c3ccc(Oc4ccccc4)cc3], the viability at 10 µM was determined as 21%. As for `COc1cc(C2=NCCN2)ccc1-c1cn(-c2cccc(C3=NCCN3)c2)nn1` [MMV688407, COc1cc(ccc1c2cn(nn2)c3cccc(c3)C4=NCCN4)C5=NCCN5], the viability at 10 µM amounted to 87%.

Regarding `CC1=Nc2ccc(Cl)cc2C(c2ccccc2)N1CCNC(=O)CN(C)C` (stereo not drawn) [MMV688410, CN(C)CC(=O)NCCN1C(c2ccccc2)c3cc(Cl)ccc3N=C1C], the viability at 10 µM turned out to be 77%. For the compound `Nc1ncc(Br)cc1-c1nc2cc(Cl)cnc2[nH]1` [MMV676358, Nc1ncc(Br)cc1c2nc3cc(Cl)cnc3[nH]2], the viability at 10 µM stood at 98%. For `c1ccc2c(c1)CN(CC1CC1)CC1(CCN(Cc3c[nH]c4cnccc34)CC1)O2` [MMV023183, C(C1CC1)N2Cc3ccccc3OC4(CCN(Cc5c[nH]c6cnccc56)CC4)C2] the value was 93%. As for `COc1ccc2nc(C)cc(OCC(=O)Nc3ccccc3OC)c2c1` [MMV687188, COc1ccc2nc(C)cc(OCC(=O)Nc3ccccc3OC)c2c1], the viability at 10 µM worked out at 92%. For the compound `COc1ccc(N(CCc2cccc(C)n2)C(C)=O)cc1` [MMV675995, COc1ccc(cc1)N(CCc2cccc(C)n2)C(=O)C], the viability at 10 µM worked out at 108%. Turning to `c1ccc(-c2cc(N3CCCCC3)c3ccccc3n2)nc1` [MMV560185, C1CCN(CC1)c2cc(nc3ccccc23)c4ccccn4], the viability at 10 µM amounted to 112%. As to `O=S(=O)(c1ccc(Cl)cc1)N1CCN(C(=S)NCc2ccco2)CC1` [MMV000858, Clc1ccc(cc1)S(=O)(=O)N2CCN(CC2)C(=S)NCc3occc3], the viability at 10 µM is 97%. As to `c1ccc(Oc2ccc(-c3cncc(-c4ccc5[nH]ccc5c4)n3)cc2)cc1` [MMV688178, O(c1ccccc1)c1ccc(cc1)-c1cncc(n1)-c1ccc2[nH]ccc2c1], the viability at 10 µM was 101%. Take `Cc1cc(C)cc(COc2ccc3c(C)c(CCC(=O)O)c(=O)oc3c2C)c1` [MMV676476, CC1=C(CCC(=O)O)C(=O)Oc2c(C)c(OCc3cc(C)cc(C)c3)ccc12]: the viability at 10 µM came out at 94%. For `CC(=O)Nc1ccc(NC(=O)c2cc(-c3cc(Cl)ccc3O)[nH]n2)cc1` [MMV676380, CC(=O)Nc1ccc(NC(=O)c2cc([nH]n2)c3cc(Cl)ccc3O)cc1] the value was 78%; for `O=C(NC1CC1)c1ccc(N2CCOc3ccc(Cl)cc32)s1` [MMV020537, Clc1ccc2OCCN(c3ccc(s3)C(=O)NC4CC4)c2c1], 97%. As for `Nc1nc(N)c2c3c(sc2n1)CN(Cc1ccccc1)CC3` [MMV688345, Nc1nc(N)c2c3CCN(Cc4ccccc4)Cc3sc2n1], the figure is 110%. Turning to `Nc1nccc2ccc(Oc3ccncc3)cc12` [MMV026313, Nc1nccc2ccc(Oc3ccncc3)cc12], the viability at 10 µM stood at 97%. For the compound `O=C(NCc1ccco1)N1CCN(Cc2ccc(Cl)s2)CC1` [MMV688555, Clc1ccc(CN2CCN(CC2)C(=O)NCc3occc3)s1], the viability at 10 µM is 103%.

Take `Cc1[nH]c2ccccc2c1C(c1cccs1)N1CCN(C)CC1` (stereo not drawn) [Compound 69, CN1CCN(CC1)C(c2cccs2)c3c(C)[nH]c4ccccc34]: the viability at 10 µM worked out at 29%. As for `CC(C)C(Oc1cccc2ccccc12)C(=O)O` (stereo not drawn) [MMV676191, CC(C)C(Oc1cccc2ccccc12)C(=O)O], the figure is 103%.

In the case of `CC(C)(C)CN1C(=O)C(c2ccccc2)(c2ccccc2)N=C1N` [MMV026550, CC(C)(C)CN1C(=NC(C1=O)(c2ccccc2)c3ccccc3)N], the viability at 10 µM was found to be 104%. Regarding `Cc1cc(OCC(=O)NCc2ccccc2)c2cc(Br)ccc2n1` [MMV687747, Cc1cc(OCC(=O)NCc2ccccc2)c3cc(Br)ccc3n1], the viability at 10 µM turned out to be 89%. For `COc1cccc(-c2cc3c(Nc4cccnc4)nccc3[nH]2)c1` [MMV392832, COc1cccc(c1)c2cc3c(Nc4cccnc4)nccc3[nH]2] the value was 101%.

For the compound `COC(=O)c1cccc2oc(-c3cccc(OC)c3NC(=O)c3cc(-c4ccccc4)on3)nc12` [MMV676186, COC(=O)c1cccc2oc(nc12)c3cccc(OC)c3NC(=O)c4cc(on4)c5ccccc5], the viability at 10 µM amounted to 90%.

As to `CCc1ccc(S(=O)(=O)Nc2cc(CN3CCN(CCC(C)C)CC3)ccc2C)cc1` [MMV688124, CCc1ccc(cc1)S(=O)(=O)Nc2cc(CN3CCN(CCC(C)C)CC3)ccc2C], the viability at 10 µM was 84%.

On to `O=[N+]([O-])c1cn2c(n1)OC[C@@H](OCc1ccc(OC(F)(F)F)cc1)C2` [MMV688755, [O-][N+](=O)c1cn2C[C@@H](COc2n1)OCc3ccc(OC(F)(F)F)cc3], for which the viability at 10 µM was found to be 95%. Take `Cc1ccc(S(=O)(=O)n2cc(-c3ccnc(N)c3)c3cc(Br)cnc32)cc1` [MMV024114, Cc1ccc(cc1)S(=O)(=O)n2cc(c3ccnc(N)c3)c4cc(Br)cnc24]: the viability at 10 µM turned out to be 52%. With `O=C(Nc1cnc2ccccc2c1)c1cccc(-n2cnnn2)c1` [MMV084864, O=C(Nc1cnc2ccccc2c1)c3cccc(c3)n4cnnn4], the viability at 10 µM worked out at 80%. As to `O=C1Nc2ccc(Br)cc2C12NCCc1c2[nH]c2ccccc12` (stereo not drawn) [MMV006239, Brc1ccc2NC(=O)C3(NCCc4c3[nH]c5ccccc45)c2c1], the viability at 10 µM worked out at 106%. Regarding `COc1ccc2nc(C)cc(OCC(=O)NCc3ccccc3)c2c1` [MMV687189, COc1ccc2nc(C)cc(OCC(=O)NCc3ccccc3)c2c1], the viability at 10 µM is 92%. As for `CO/N=C(\C(=O)OC)c1ccccc1CO/N=C(\C)c1cccc(C(F)(F)F)c1` [MMV688754, CO\N=C(/C(=O)OC)\c1ccccc1CO\N=C(/C)\c2cccc(c2)C(F)(F)F], the figure is 100%; as for `N#Cc1nc(-c2ccccc2F)oc1NCCc1ccccc1` [MMV676384, Fc1ccccc1c2oc(NCCc3ccccc3)c(n2)C#N], 107%; as for `COc1ccc(-c2onc(C(F)(F)F)c2-c2ccc(Cl)cc2)c(O)c1` [MMV688766, COc1ccc(c(O)c1)c2onc(c2c3ccc(Cl)cc3)C(F)(F)F], 88%. In the case of `Cc1cc(C(=O)Nc2cnn(Cc3ccc(Cl)cc3Cl)c2)no1` [MMV009054, Cc1onc(c1)C(=O)Nc2cnn(Cc3ccc(Cl)cc3Cl)c2], the viability at 10 µM amounted to 89%. As for `NS(=O)(=O)c1cccc(-c2ccc3ncc(N4CCOCC4)nc3c2)c1` [MMV023860, NS(=O)(=O)c1cccc(c1)c2ccc3ncc(nc3c2)N4CCOCC4], the figure is 110%; as for `CS(=O)(=O)N1CCC(CCn2nc(Cc3cccc4ccccc34)c3c(N)ncnc32)CC1` [MMV688470, CS(=O)(=O)N1CCC(CCn2nc(Cc3cccc4ccccc34)c3c(N)ncnc23)CC1], 99%. Consider `CCCn1nnc(NC(=O)COc2ccc(C3CCCCC3)cc2)n1` [MMV676597, CCCn1nnc(NC(=O)COc2ccc(cc2)C3CCCCC3)n1], for which the viability at 10 µM was 71%. For `COc1ccc(Oc2ccc([C@@H](C)N(C)c3ncc4c(N)nc(N)nc4n3)cc2)cc1` [MMV690102, COc1ccc(Oc2ccc(cc2)[C@@H](C)N(C)c3ncc4c(N)nc(N)nc4n3)cc1], the viability at 10 µM was 42%. Regarding `COc1cc(C(F)(F)F)nc2ccc(C)c(N)c12` [MMV047015, COc1cc(nc2ccc(C)c(N)c12)C(F)(F)F], the viability at 10 µM stood at 113%.

The values above are taken from paper PMC6301270 (MedChemComm, 2018).
